For five compounds, solubility and EC50 results are on record in patent publication US20250382344A1, “Soluble GLP1/GIP/NPY2 Receptor Triple Agonists” (Boehringer Ingelheim International GmH, priority 2024, published 2025).

As a reminder, the solubility is the dissolved amount per volume that the medium holds.

The structures appear in SMILES notation. Like-named read-outs stand apart in the source and are kept apart here.

Data set [1] can be described thus: Solubility in 0.1 M phosphate buffer at pH 7. The format is physicochemical. The following applies: 0.1 M phosphate buffer at pH 7, 10 mg/mL final peptide concentration, shaking 2 hours at room temperature, peptides as TFA-salts; measured sample pH 6.5-7.0.
The next data set concerns the target T1, hGLP1R (Homo sapiens, UniProt P43220).
T1 construct: expressed in transfected cells; host or cells: HEK-293 CRE-luciferase reporter cells
Kind of data set: hGLP1R CreLuc assay in 0.5% and 100% plasma (HEK-293 CRE-luciferase reporter cells). The format is cell-based. The conditions noted are these: HEK-293 reporter cells.

A further data set addresses T2, hGIPR (Homo sapiens, UniProt P48546).
T2 construct: expressed in transfected cells; host or cells: CHO CRE-luciferase reporter cells
T2 sequence (P48546 22-466): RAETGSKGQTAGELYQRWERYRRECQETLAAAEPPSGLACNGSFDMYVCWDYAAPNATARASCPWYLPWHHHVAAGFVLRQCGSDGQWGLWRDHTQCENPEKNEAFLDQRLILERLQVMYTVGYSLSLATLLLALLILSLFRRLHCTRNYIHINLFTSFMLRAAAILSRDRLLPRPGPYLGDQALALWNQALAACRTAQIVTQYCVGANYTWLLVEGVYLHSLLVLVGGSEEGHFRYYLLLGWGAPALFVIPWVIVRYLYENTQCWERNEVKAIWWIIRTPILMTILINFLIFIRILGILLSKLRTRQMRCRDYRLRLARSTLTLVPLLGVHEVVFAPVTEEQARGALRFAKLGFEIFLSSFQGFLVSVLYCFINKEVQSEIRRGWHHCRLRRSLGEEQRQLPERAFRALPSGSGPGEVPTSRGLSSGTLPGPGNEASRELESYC
Kind of data set: hGIPR CreLuc assay in 0.5% and 100% plasma (CHO CRE-luciferase reporter cells). The format is cell-based. (In a reporter assay the amount or activity of a reporter protein is the signal.)

The mark [2] stands for this setting: 0.5% human plasma, read-out: hGLP1R 0.5% hP.
[3] abbreviates: 0.5% human plasma, read-out: hGIPR 0.5% hP.
[4] abbreviates: 100% human plasma, read-out: hGIPR 100% hP.
[5] abbreviates: 100% human plasma, read-out: hGLP1R 100% hP.

T1 sequence (P43220 24-463): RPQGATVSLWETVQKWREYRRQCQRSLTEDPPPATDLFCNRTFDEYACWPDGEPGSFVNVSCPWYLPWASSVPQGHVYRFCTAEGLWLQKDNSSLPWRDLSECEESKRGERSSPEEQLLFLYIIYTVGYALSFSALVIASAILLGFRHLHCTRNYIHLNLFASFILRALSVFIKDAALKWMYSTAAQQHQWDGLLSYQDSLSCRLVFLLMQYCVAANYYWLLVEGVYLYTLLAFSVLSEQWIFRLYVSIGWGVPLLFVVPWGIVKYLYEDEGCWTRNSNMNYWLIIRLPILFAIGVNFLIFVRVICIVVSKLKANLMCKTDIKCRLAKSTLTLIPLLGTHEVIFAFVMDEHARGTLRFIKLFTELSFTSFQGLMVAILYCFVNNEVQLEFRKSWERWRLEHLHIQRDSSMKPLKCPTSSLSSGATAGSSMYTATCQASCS

`CC[C@H](C)[C@H](NC(=O)[C@H](CC(C)C)NC(=O)[C@H](Cc1c[nH]cn1)NC(=O)[C@H](CCCNC(=N)N)NC(=O)[C@@H](NC(=O)[C@H](Cc1ccccc1)NC(=O)[C@H](CCC(=O)O)NC(=O)C(C)(C)NC(=O)[C@H](CCC(N)=O)NC(=O)[C@H](C)NC(=O)[C@H](CCC(N)=O)NC(=O)[C@H](CCCCN)NC(=O)[C@H](CCC(=O)O)NC(=O)[C@H](CC(C)C)NC(=O)C(C)(C)NC(=O)[C@@H](NC(=O)[C@H](CO)NC(=O)[C@H](Cc1ccc(O)cc1)NC(=O)[C@H](CC(=O)O)NC(=O)[C@H](CO)NC(=O)[C@@H](NC(=O)[C@H](Cc1ccccc1)NC(=O)[C@@H](NC(=O)CNC(=O)[C@H](CCC(=O)O)NC(=O)C(C)(C)NC(=O)[C@@H](N)Cc1ccc(O)cc1)[C@@H](C)O)[C@@H](C)O)[C@@H](C)CC)C(C)C)C(=O)N[C@@H](CC(N)=O)C(=O)N[C@@H](CCCCNC(=O)COCCOCCNC(=O)COCCOCCNC(=O)CC[C@H](NC(=O)CC[C@H](NC(=O)CC[C@H](NC(=O)CC[C@H](NC(=O)CC[C@H](NC(=O)CCCCCCCCCCCCCCCCC(=O)O)C(=O)O)C(=O)O)C(=O)O)C(=O)O)C(=O)O)C(=O)NC(C)(C)C(=O)N[C@H](C(=O)N[C@@H](CCCNC(=N)N)C(=O)N[C@@H](CCC(N)=O)C(=O)N[C@@H](CCCNC(=N)N)C(=O)N[C@@H](Cc1ccc(O)cc1)C(N)=O)[C@@H](C)O` [Compound 98, Y-Aib-E-G-T-F-T-S-D-Y-S-I-Aib-L-E-K-Q-A-Q-Aib-E-F-V-R-H-L-I-N-K(1,3)-Aib-T-R-Q-R-Y-NH2.C18DA-gGlu-gGlu-gGlu-gGlu-gGlu-OEG-OEG(1,2)]: the solubility at 2 h in data set [1] came out at 4900 µg/mL. Moreover, the EC50 on hGLP1R (setting [2]) was determined as 0.7 nM; on hGIPR (setting [3]) it was 0.5 nM.

Take `CC[C@H](C)[C@H](NC(=O)[C@H](CC(C)C)NC(=O)[C@H](Cc1c[nH]cn1)NC(=O)[C@H](CCCNC(=N)N)NC(=O)[C@@H](NC(=O)[C@H](Cc1ccccc1)NC(=O)[C@H](CCC(=O)O)NC(=O)C(C)(C)NC(=O)[C@H](CCC(N)=O)NC(=O)[C@H](C)NC(=O)[C@H](CCC(N)=O)NC(=O)[C@H](CCCCN)NC(=O)[C@H](CC(=O)O)NC(=O)[C@H](CC(C)C)NC(=O)C(C)(C)NC(=O)[C@@H](NC(=O)[C@H](CO)NC(=O)[C@H](Cc1ccc(O)cc1)NC(=O)[C@H](CC(=O)O)NC(=O)[C@H](CO)NC(=O)[C@@H](NC(=O)[C@H](Cc1ccccc1)NC(=O)[C@@H](NC(=O)CNC(=O)[C@H](CCC(=O)O)NC(=O)C(C)(C)NC(=O)[C@@H](N)Cc1ccc(O)cc1)[C@@H](C)O)[C@@H](C)O)[C@@H](C)CC)C(C)C)C(=O)N[C@@H](CC(N)=O)C(=O)N[C@@H](CCCCNC(=O)[C@@H](N)CCCCNC(=O)CC[C@H](NC(=O)CC[C@H](NC(=O)CC[C@H](NC(=O)CC[C@H](NC(=O)CC[C@H](NC(=O)CCCCCCCCCCCCCCCCC(=O)O)C(=O)O)C(=O)O)C(=O)O)C(=O)O)C(=O)O)C(=O)NC(C)(C)C(=O)N[C@H](C(=O)N[C@@H](CCCNC(=N)N)C(=O)N[C@@H](CCC(N)=O)C(=O)N[C@@H](CCCNC(=N)N)C(=O)N[C@@H](Cc1ccc(O)cc1)C(N)=O)[C@@H](C)O` [Compound 113, Y-Aib-E-G-T-F-T-S-D-Y-S-I-Aib-L-D-K-Q-A-Q-Aib-E-F-V-R-H-L-I-N-K(1,3)-Aib-T-R-Q-R-Y-NH2.C18DA-gGlu-gGlu-gGlu-gGlu-gGlu-eLys(1,2)]: in data set [1], the solubility at 2 h amounted to 8700 µg/mL. In addition, the results for the EC50 at hGLP1R (setting [2]), on hGIPR (setting [3]) and on hGIPR (setting [4]) were 0.1 nM, 0.2 nM and 5.5 nM, respectively.

On to `CC[C@H](C)[C@H](NC(=O)[C@H](CC(C)C)NC(=O)[C@H](Cc1c[nH]cn1)NC(=O)[C@H](CCCNC(=N)N)NC(=O)[C@@H](NC(=O)[C@H](Cc1ccccc1)NC(=O)[C@H](C)NC(=O)C(C)(C)NC(=O)[C@H](CCC(N)=O)NC(=O)[C@H](C)NC(=O)[C@H](CCC(N)=O)NC(=O)[C@H](CCCCN)NC(=O)[C@H](CCC(=O)O)NC(=O)[C@H](CC(C)C)NC(=O)C(C)(C)NC(=O)[C@@H](NC(=O)[C@H](CO)NC(=O)[C@H](Cc1ccc(O)cc1)NC(=O)[C@H](CC(=O)O)NC(=O)[C@H](CO)NC(=O)[C@@H](NC(=O)[C@H](Cc1ccccc1)NC(=O)[C@@H](NC(=O)CNC(=O)[C@H](CCC(=O)O)NC(=O)C(C)(C)NC(=O)[C@@H](N)Cc1ccc(O)cc1)[C@@H](C)O)[C@@H](C)O)[C@@H](C)CC)C(C)C)C(=O)N[C@@H](CC(N)=O)C(=O)N[C@@H](CCCCNC(=O)[C@@H](N)CCCCNC(=O)CC[C@H](NC(=O)CC[C@H](NC(=O)CC[C@H](NC(=O)CC[C@H](NC(=O)CC[C@H](NC(=O)CC[C@H](NC(=O)CCCCCCCCCCCCCCCCC(=O)O)C(=O)O)C(=O)O)C(=O)O)C(=O)O)C(=O)O)C(=O)O)C(=O)NC(C)(C)C(=O)N[C@H](C(=O)N[C@@H](CCCNC(=N)N)C(=O)N[C@@H](CCC(N)=O)C(=O)N[C@@H](CCCNC(=N)N)C(=O)N(C)[C@@H](Cc1ccc(O)cc1)C(N)=O)[C@@H](C)O` [Compound 116, Y-Aib-E-G-T-F-T-S-D-Y-S-I-Aib-L-E-K-Q-A-Q-Aib-A-F-V-R-H-L-I-N-K(1,3)-Aib-T-R-Q-R-NMeY-NH2.C18DA-gGlu-gGlu-gGlu-gGlu-gGlu-gGlu-eLys(1,2)], for which the solubility at 2 h in data set [1] was found to be 4200 µg/mL. The EC50 was found to be 2 nM at hGLP1R (setting [2]), 0.3 nM at hGIPR (setting [3]) and 3.4 nM at hGIPR (setting [4]).

As to `CC[C@H](C)[C@H](NC(=O)[C@H](CC(C)C)NC(=O)[C@H](Cc1c[nH]cn1)NC(=O)[C@H](CCCNC(=N)N)NC(=O)[C@@H](NC(=O)[C@H](Cc1ccccc1)NC(=O)[C@H](C)NC(=O)C(C)(C)NC(=O)[C@H](CCC(N)=O)NC(=O)[C@H](C)NC(=O)[C@H](CCC(N)=O)NC(=O)[C@H](CCCCN)NC(=O)[C@H](CCC(=O)O)NC(=O)[C@H](CC(C)C)NC(=O)C(C)(C)NC(=O)[C@@H](NC(=O)[C@H](CO)NC(=O)[C@H](Cc1ccc(O)cc1)NC(=O)[C@H](CC(=O)O)NC(=O)[C@H](CO)NC(=O)[C@@H](NC(=O)[C@H](Cc1ccccc1)NC(=O)[C@@H](NC(=O)CNC(=O)[C@H](CCC(=O)O)NC(=O)C(C)(C)NC(=O)[C@@H](N)Cc1ccc(O)cc1)[C@@H](C)O)[C@@H](C)O)[C@@H](C)CC)C(C)C)C(=O)N[C@@H](CC(N)=O)C(=O)N[C@@H](CCCCNC(=O)[C@@H](N)CCCCNC(=O)CC[C@H](NC(=O)CC[C@H](NC(=O)CC[C@H](NC(=O)CC[C@H](NC(=O)CC[C@H](NC(=O)CC[C@H](NC(=O)CCCCCCCCCCCCCCCCC(=O)O)C(=O)O)C(=O)O)C(=O)O)C(=O)O)C(=O)O)C(=O)O)C(=O)N[C@@H](CC(C)C)C(=O)N[C@H](C(=O)N[C@@H](CCCNC(=N)N)C(=O)N[C@@H](CCC(N)=O)C(=O)N[C@@H](CCCNC(=N)N)C(=O)N[C@@H](Cc1ccc(O)cc1)C(N)=O)[C@@H](C)O` [Compound 127, Y-Aib-E-G-T-F-T-S-D-Y-S-I-Aib-L-E-K-Q-A-Q-Aib-A-F-V-R-H-L-I-N-K(1,3)-L-T-R-Q-R-Y-NH2.C18DA-gGlu-gGlu-gGlu-gGlu-gGlu-gGlu-eLys(1,2)], the solubility at 2 h in data set [1] stood at 4500 µg/mL. The EC50 is 4 nM on hGLP1R (setting [5]) and 0.4 nM at hGIPR (setting [3]).

With `CC[C@H](C)[C@H](NC(=O)[C@H](CC(C)C)NC(=O)[C@H](C)NC(=O)[C@H](CCCNC(=N)N)NC(=O)[C@@H](NC(=O)[C@H](Cc1ccccc1)NC(=O)[C@H](C)NC(=O)C(C)(C)NC(=O)[C@H](CCC(N)=O)NC(=O)[C@H](C)NC(=O)[C@H](CCC(N)=O)NC(=O)[C@H](CCCCN)NC(=O)[C@H](CCC(=O)O)NC(=O)[C@H](CC(C)C)NC(=O)C(C)(C)NC(=O)[C@@H](NC(=O)[C@H](CO)NC(=O)[C@H](Cc1ccc(O)cc1)NC(=O)[C@H](CC(=O)O)NC(=O)[C@H](CO)NC(=O)[C@@H](NC(=O)[C@H](Cc1ccccc1)NC(=O)[C@@H](NC(=O)CNC(=O)[C@H](CCC(=O)O)NC(=O)C(C)(C)NC(=O)[C@@H](N)Cc1ccc(O)cc1)[C@@H](C)O)[C@@H](C)O)[C@@H](C)CC)C(C)C)C(=O)N[C@@H](CC(N)=O)C(=O)N[C@@H](CCCCNC(=O)[C@@H](N)CCCCNC(=O)CC[C@H](NC(=O)CC[C@H](NC(=O)CC[C@H](NC(=O)CC[C@H](NC(=O)CC[C@H](NC(=O)CC[C@H](NC(=O)CCCCCCCCCCCCCCCCC(=O)O)C(=O)O)C(=O)O)C(=O)O)C(=O)O)C(=O)O)C(=O)O)C(=O)NC(C)(C)C(=O)N[C@H](C(=O)N[C@@H](CCCNC(=N)N)C(=O)N[C@@H](CCC(N)=O)C(=O)N[C@@H](CCCNC(=N)N)C(=O)N[C@@H](Cc1ccc(O)cc1)C(N)=O)[C@@H](C)O` [Compound 128, Y-Aib-E-G-T-F-T-S-D-Y-S-I-Aib-L-E-K-Q-A-Q-Aib-A-F-V-R-A-L-I-N-K(1,3)-Aib-T-R-Q-R-Y-NH2.C18DA-gGlu-gGlu-gGlu-gGlu-gGlu-gGlu-eLys(1,2)], in data set [1], the solubility at 2 h worked out at 4100 µg/mL. Besides, the values for the EC50 on hGLP1R (setting [2]), at hGLP1R (setting [5]) and on hGIPR (setting [3]) were 0.7 nM, 4 nM and 0.2 nM, respectively.
